# Values quoted from earlier work as cited in patent US20190231888A1, “TEXAPHYRIN AND ANTITUMOR ANTIBIOTIC CONJUGATES” (priority 2016, published 2019).
# Conditions: intravenous, determined in one study; cited from earlier work
substance,measurement,value
lutetium texaphyrin,maximum tolerated dose,5.2 mg/kg
